One assay relates to Colletotrichum spp. Nature of the assay: Antifungal effect against Colletotrichum infection on wounded skin of pepper fruits (Colby synergy). The assay is classed as in vivo. From the text:
wherein X and Y are the observed antifungal activities (in %) of the individual active ingredients x and y, respectively. If the observed antifungal activity (O in %) of the combination exceeds the expected antifungal activity (E in %) of the combination and the synergy factor O/E is thus >1.0, the combined application of the active ingredients leads to a synergistic antifungal effect. […]
For the treatment, 5 wounds per pepper side were done as previously described. In addition, one wound was done as negative control. Depending on the number of sides of the pepper, 3 to 4 treatments were done per paprika. Per wound 10 μl of treatment was placed on the wound. The treatments were let to dry in a down flow cabinet for about 30 minutes. After drying 5 μl spore suspension at a concentration of 10^7 spores per ml were placed on the wounds. The fungus was isolated from Colletotrichum-infected plant material and identified using techniques known to the person skilled in the art. The pepper were placed as described previously in a transparent container, with the difference that the containers were then placed in a transparent plastic zipper bag. The bags with peppers were placed at room temperature and in the dark for two days. After that the size of the lesions were measured. Assessment of the infection area was 4 days after inoculation. Experiment was performed in 5-fold.
The fungus was isolated from Colletotrichum-infected plant material and identified using techniques known to the person skilled in the art. Assessment of the infection area was performed 5 days after inoculation. Experiment was performed in 5-fold.
The active ingredient imidacloprid was formulated as described in Table 2. Imidacloprid belonging to IRAC Group 4. The fungus was isolated from Colletotrichum-infected plant material and identified using techniques known to the person skilled in the art. Assessment of the infection area was performed 5 days after inoculation. Experiment was performed in 5-fold.
The fungus was isolated from Colletotrichum-infected plant material and identified using techniques known to the person skilled in the art. Assessment of the efficacy was 5 days after inoculation. Experiment was performed in 5-fold.
The fungus was isolated from Colletotrichum-infected plant material and identified using techniques known to the person skilled in the art. Assessment of the infection area was performed 6 days after inoculation. Experiment was performed in 5-fold.
The fungus was isolated from Colletotrichum-infected plant material and identified using techniques known to the person skilled in the art. Assessment of the infection area was performed 4 days after inoculation. Experiment was performed in 5-fold.

For a further assay, the system named is Fusarium graminerum. The assay is classed as cell-based. The settings on record: 6 days after inoculation. The text has this:
The Colby equation (Colby, 1967. Weeds 15:20-22) calculates the expected antifungal activity (E in %) of a combination comprising more than one active ingredients:
wherein X and Y are the observed antifungal activities (in %) of the individual active ingredients x and y, respectively. If the observed antifungal activity (O in %) of the combination exceeds the expected antifungal activity (E in %) of the combination and the synergy factor O/E is thus >1.0, the combined application of the active ingredients leads to a synergistic antifungal effect.
Agar medium was prepared by mixing in a 100 ml Duran bottle 3.9 g of potato dextrose agar (PDA) from Carl-Roth (Carl-Roth GmbH+Co. KG, Karlsruhe, Germany) with 100 ml deionized water and autoclaving the Duran bottle at 120° C. for 15 minutes. After autoclaving, the solution was cooled by putting it in a 48° C. oven for about two hours. Afterward the semi-liquid PDA solution was carefully mixed with natamycin and/or insecticide dosages as specified in Table 5 showing the interaction results on petri dishes. The medium in the Duran bottle was divided over 5 petri dishes (90×15 mm), 20 ml per petri dish by using 25 ml serological pipets (ROTILABO®; Carl-Roth). Each natamycin and/or insecticide treatment was performed in fivefold.
Fungal spore suspensions were prepared by drenching a fully grown petri dish with sterile water. The fungus was scraped off and filtered through a Miracloth (pore size: 22-25 μm) (Merck KGaA, Darmstadt, Germany; catalogue number: 475855). The number of spores were counted with a hemocytometer and fungal suspension was adjusted to 10^6 spores per ml. Afterward, 5 μl of prepared spore suspension was pipetted on the center of the agar plate. The plates were incubated at 25° C. Measurement of the fungal growth was done using callipers at different time points. Assessment of the infection area was 6 days after inoculation.
The insecticide levels and the period after which the assessments were made are presented as specified for the different insecticides are presented in Table 5 below. Synergistic calculation was done using the Colby equation. Experiment was performed in 5-fold.
The experiments were performed as described in Example 3. The product KARATE ZEON® of company Syngenta containing the active ingredient lambda-cyhalothrin belonging to IRAC Group 3 was tested. Assessment of the infection area was 6 days after inoculation. Experiment was performed in 5-fold.

Setting [1] is: natamycin-insecticide 1:0 ppm, 4 days after inoculation, Table 13.
Where [2] appears, read: natamycin-insecticide 1:0 ppm, 5 days after inoculation, Table 15.
Setting [3] is: natamycin-insecticide 1:0 ppm, 5 days after inoculation, Table 16.
Where [4] appears, read: natamycin-insecticide 1:0 ppm, 5 days after inoculation, Table 17.
The mark [5] stands for this setting: natamycin:abamectin 1:0 ppm, 4 days after inoculation, Table 20.
The mark [6] stands for this setting: natamycin:fipronil 1:0 ppm, 6 days after inoculation, Table 19.
The mark [7] stands for this setting: natamycin-insecticide 0.5-0 ppm, Table 5.
[8] abbreviates: natamycin-insecticide 1-0 ppm, Table 10.

Like-named read-outs stand apart in the source and are kept apart here.

The values below come from patent US20250280827A1, “An antifungal composition comprising natamycin and at least one insecticide” (priority 2021, published 2025).

Turning to `C[C@@H]1C/C=C/C=C/C=C/C=C/[C@H](O[C@@H]2O[C@H](C)[C@@H](O)[C@H](N)[C@@H]2O)C[C@@H]2O[C@](O)(C[C@@H](O)C[C@H]3O[C@@H]3/C=C/C(=O)O1)C[C@H](O)[C@H]2C(=O)O` [natamycin], the Avg infected area is reported as 10.6 mm2 in the assay on Colletotrichum spp. (setting [1]); 30.2 mm2 with Colletotrichum spp. (setting [2]); 30.2 mm2 in the assay on Colletotrichum spp. (setting [3]); 22.4 mm2 in the assay on Colletotrichum spp. (setting [4]); 13.5 mm2 with Colletotrichum spp. (setting [5]); 24.7 mm^2 in the assay on Colletotrichum spp. (setting [6]). The Avg infected area came to 1054.4 mm2 with Fusarium graminerum (setting [7]) and 1107.7 mm2 in the assay on Fusarium graminerum (setting [8]). Besides, the Observed antifungal activity is given as 33.8% with Colletotrichum spp. (setting [1]); 28.6% with Colletotrichum spp. (setting [2]); 28.6% in the assay with Colletotrichum spp. (setting [3]); 59.5% in the assay on Colletotrichum spp. (setting [4]); 39.8% in the assay with Colletotrichum spp. (setting [5]); 50.7% in the assay on Colletotrichum spp. (setting [6]). The Observed antifungal activity is listed as 7.2% in the assay with Fusarium graminerum (setting [7]) and 69.4% in the assay on Fusarium graminerum (setting [8]).
